Data from publication PMC6391970, “Design, Synthesis and Characterization of Covalent KDM5 Inhibitors” (Angewandte Chemie (International Ed. in English), 2018).

Target: KDM5C (Homo sapiens, UniProt P41229)
Assay: Covalent binding by MS, KDM5C
Details: same conditions as with KDM5B

KDM5C, sequence (P41229 whole entry): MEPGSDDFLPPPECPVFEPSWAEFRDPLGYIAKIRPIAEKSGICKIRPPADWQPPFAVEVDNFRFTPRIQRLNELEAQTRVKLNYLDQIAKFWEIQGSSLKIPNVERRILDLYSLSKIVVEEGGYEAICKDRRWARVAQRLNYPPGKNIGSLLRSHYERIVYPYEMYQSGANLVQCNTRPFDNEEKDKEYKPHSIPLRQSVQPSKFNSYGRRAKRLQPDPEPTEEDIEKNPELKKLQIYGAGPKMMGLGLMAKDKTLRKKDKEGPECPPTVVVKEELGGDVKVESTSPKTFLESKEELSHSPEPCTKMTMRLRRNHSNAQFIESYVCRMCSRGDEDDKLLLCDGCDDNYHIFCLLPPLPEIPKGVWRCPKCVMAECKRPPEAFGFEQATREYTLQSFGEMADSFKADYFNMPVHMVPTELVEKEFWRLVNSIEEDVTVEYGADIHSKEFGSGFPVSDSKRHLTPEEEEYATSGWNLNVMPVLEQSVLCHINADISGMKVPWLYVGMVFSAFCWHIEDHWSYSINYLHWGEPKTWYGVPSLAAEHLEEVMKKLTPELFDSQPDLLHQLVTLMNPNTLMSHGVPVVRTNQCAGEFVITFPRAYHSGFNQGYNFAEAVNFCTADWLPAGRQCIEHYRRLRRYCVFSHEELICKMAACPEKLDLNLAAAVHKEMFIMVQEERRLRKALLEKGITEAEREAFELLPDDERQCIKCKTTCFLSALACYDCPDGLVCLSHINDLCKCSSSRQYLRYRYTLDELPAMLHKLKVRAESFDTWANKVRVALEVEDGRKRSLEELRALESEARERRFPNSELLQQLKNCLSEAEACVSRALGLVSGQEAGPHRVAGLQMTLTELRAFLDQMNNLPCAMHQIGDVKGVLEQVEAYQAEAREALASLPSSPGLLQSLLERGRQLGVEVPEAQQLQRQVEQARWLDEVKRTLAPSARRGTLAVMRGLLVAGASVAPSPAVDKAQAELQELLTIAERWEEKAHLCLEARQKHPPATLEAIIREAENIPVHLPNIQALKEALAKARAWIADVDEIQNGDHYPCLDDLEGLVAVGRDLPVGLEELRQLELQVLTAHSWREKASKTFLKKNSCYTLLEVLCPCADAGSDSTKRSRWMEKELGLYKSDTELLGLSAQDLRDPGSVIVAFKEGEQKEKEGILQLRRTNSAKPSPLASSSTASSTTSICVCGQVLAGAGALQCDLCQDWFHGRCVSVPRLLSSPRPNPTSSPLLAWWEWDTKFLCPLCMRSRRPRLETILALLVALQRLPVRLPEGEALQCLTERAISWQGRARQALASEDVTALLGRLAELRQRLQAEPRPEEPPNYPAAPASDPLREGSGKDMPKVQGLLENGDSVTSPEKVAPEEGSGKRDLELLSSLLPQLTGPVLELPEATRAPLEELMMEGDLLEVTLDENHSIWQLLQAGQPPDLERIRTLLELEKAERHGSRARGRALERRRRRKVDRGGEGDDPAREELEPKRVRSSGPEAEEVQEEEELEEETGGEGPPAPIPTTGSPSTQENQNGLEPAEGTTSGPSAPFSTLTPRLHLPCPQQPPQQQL

SMILES: CN(C)C/C=C/C(=O)Nc1cccc(CN(C)CCc2cnn(-c3nccc4c(=O)[nH]cnc34)c2)c1 [Compound 6]
- covalent binding to KDM5C by MS: no covalent binding
